For orientation: inhibition means the percentage by which the read-out fell short of the control. A higher inhibition goes with strong suppression.

For the first test, the system named is MDA MB 231 cells. Description: Antiproliferation assay in MDA MB 231 cells (Cell Titer Glo). In kind it is cell-based. The settings on record: Homo sapiens, MDA-MB-231, 216 h, MDAMB231 cell line, 9 day treatment, racemic compounds (Table 2). The protocol:
Antiproliferation Assay in MDA MB 231 Cells MDA MB 231 cells were seeded in 96 well plate at a seeding density of 250 cells/well. The cells were allowed to settle overnight under standard incubator conditions (37° C., 5% CO2). Next day treatment with increasing dose of test compounds and reference compounds were done to the respective wells and the cells were further incubated under standard cell culture conditions for another 4 days. On the 5th day, media was replenished with fresh treatment and cells were incubated for a total of 9 day treatment period. On the day of termination, appropriate volume of Cell Titer Glo reagent was added to the treatment (and control) wells and the plates were kept on a plate shaker @300 RPM for 15 min. Luminiscence reading (RLU) was […] RLU is directly proportional to ATP content and is directly related to number of metabolically active cells in the respective well. Calculation: a. Blank Correction: RLU of the Wells Containing No Cells is Considered as Blank and Subtracted from all RLU of the Treated and Control Wells [formula]
In general terms: ATP-based viability assays read luminescence as a measure of living cells.
Take `CCC(=O)N1N=C(c2c(C)c3ccsc3[nH]c2=O)CC1c1ccc(OC)cc1` (racemic) [Example 20, 5-(5-(4-Methoxyphenyl)-1-propionyl-4,5-dihydro-1H-pyrazol-3-yl)-4-methylthieno-[2,3-b]pyridin-6(7H)-one]: the inhibition at 10 µM was at least 50%.

`CCC(=O)N1N=C(c2c(C)c3ccsc3[nH]c2=O)CC1c1ccc(Cl)cc1` (racemic) [Example 28, 5-(5-(4-chlorophenyl)-1-propionyl-4,5-dihydro-1H-pyrazol-3-yl)-4-methylthieno[2,3-b]pyridin-6(7H)-one] returned an inhibition at 10 µM of at least 50%.

In the case of `CCC(=O)N1N=C(c2c(C)c3ccsc3[nH]c2=O)CC1c1ccsc1` (racemic) [Example 33, 4-methyl-5-(1-propionyl-5-(thiophen-3-yl)-4,5-dihydro-1H-pyrazol-3-yl)thieno[2,3-b]pyridin-6(7H)-one], the inhibition at 10 µM was under 50%. In turn, `CCC(=O)N1N=C(c2c(C)c3ccsc3[nH]c2=O)CC1c1ccc(C)cc1` (racemic) [Example 37, 4-methyl-5-(1-propionyl-5-(p-tolyl)-4,5-dihydro-1H-pyrazol-3-yl)thieno[2,3-b]pyridin-6(7H)-one] gave an inhibition at 10 µM of at least 50%. Still for that read-out and setting: in the case of `CCC(=O)N1N=C(c2c(C)c3ccsc3[nH]c2=O)CC1c1ccc(C)nc1` (racemic) [Example 45, 4-methyl-5-(5-(6-methylpyridin-3-yl)-1-propionyl-4,5-dihydro-1H-pyrazol-3-yl)thieno[2,3-b]pyridin-6(7H)-one] it was at least 50%. On the same count and under the same terms, in the case of `CCC(=O)N1N=C(c2c(C)c3ccccc3[nH]c2=O)CC1c1ccc(C)cc1` (racemic) [Example 60, 4-methyl-3-(1-propionyl-5-(p-tolyl)-4,5-dihydro-1H-pyrazol-3-yl)quinolin-2(1H)-one] it was at least 50%; in that of `CCC(=O)N1N=C(c2c(C)c3ccsc3[nH]c2=O)CC1c1ccc(C)cc1F` (racemic) [Example 66, 5-(5-(2-fluoro-4-methylphenyl)-1-propionyl-4,5-dihydro-1H-pyrazol-3-yl)-4-methylthieno[2,3-b]pyridin-6(7H)-one], at least 50%. `CCC(=O)N1N=C(c2c(C)c3ccncc3[nH]c2=O)CC1c1ccc(C)cc1` (racemic) [Example 74, 4-methyl-3-(1-propionyl-5-(p-tolyl)-4,5-dihydro-1H-pyrazol-3-yl)-1,7-naphthyridin-2(1H)-one] registered an inhibition at 10 µM of at least 50%. On the same count and under the same terms, in the case of `CCC(=O)N1N=C(c2c(C)c3ccnc(C)c3[nH]c2=O)CC1c1ccc(C)cc1` (racemic) [Example 78, 4,8-dimethyl-3-(1-propionyl-5-(p-tolyl)-4,5-dihydro-1H-pyrazol-3-yl)-1,7-naphthyridin-2(1H)-one] it was at least 50%. Still for that read-out and setting: in the case of `CCC(=O)N1N=C(c2c(C)c3ccc(Cl)cc3[nH]c2=O)CC1c1ccc(C)cc1` (racemic) [Example 80, 7-chloro-4-methyl-3-(1-propionyl-5-(p-tolyl)-4,5-dihydro-1H-pyrazol-3-yl)quinolin-2(1H)-one] it was at least 50%; in that of `CCC(=O)N1N=C(c2c(C)c3ccc(N4CCN(C)CC4)cc3[nH]c2=O)CC1c1ccc(C)cc1` (racemic) [Example 82, 4-methyl-7-(4-methylpiperazin-1-yl)-3-(1-propionyl-5-(p-tolyl)-4,5-dihydro-1H-pyrazol-3-yl)quinolin-2(1H)-one], at least 50%; in that of `CCC(=O)N1N=C(c2c(C)c3cc(Cl)ccc3[nH]c2=O)CC1c1ccc(OC)cc1` (stereo not drawn) [Example 1, 6-Chloro-3-(5-(4-methoxyphenyl)-1-propionyl-4,5-dihydro-1H-pyrazol-3-yl)-4-methylquinolin-2(1H)-one], at least 50%. Compound `COc1ccc(C2CC(c3c(C)c4cc(Cl)ccc4[nH]c3=O)=NN2C(=O)C2CC2)cc1` (stereo not drawn) [Example 2, 6-Chloro-3-(1-(cyclopropanecarbonyl)-5-(4-methoxyphenyl)-4,5-dihydro-1H-pyrazol-3-yl)-4-methylquinolin-2(1H)-one] returned an inhibition at 10 µM of at least 50%. `COc1ccc(C2CC(c3c(C)c4cc(Cl)ccc4[nH]c3=O)=NN2C(=O)C2CCOCC2)cc1` (stereo not drawn) [Example 3, 6-chloro-3-(5-(4-methoxyphenyl)-1-(tetrahydro-2H-pyran-4-carbonyl)-4,5-dihydro-1H-pyrazol-3-yl)-4-methylquinolin-2(1H)-one] gave an inhibition at 10 µM of at least 50%. Same read-out and setting: in the case of `COc1ccc(C2CC(c3c(C)c4cc(Cl)ccc4[nH]c3=O)=NN2C(=O)C2CCOC2)cc1` (stereo not drawn) [Example 4, 6-chloro-3-(5-(4-methoxyphenyl)-1-(tetrahydrofuran-3-carbonyl)-4,5-dihydro-1H-pyrazol-3-yl)-4-methylquinolin-2(1H)-one] it was at least 50%; in that of `COc1ccc(C2CC(c3c(C)c4cc(Cl)ccc4[nH]c3=O)=NN2C)cc1` (stereo not drawn) [Example 5, 6-Chloro-3-(5-(4-methoxyphenyl)-1-methyl-4,5-dihydro-1H-pyrazol-3-yl)-4-methylquinolin-2(1H)-one], under 50%; in that of `CCC(=O)N1N=C(c2c(C)c3cc(Cl)ccc3[nH]c2=O)CC1c1ccc2ccn(C)c2c1` (stereo not drawn) [Example 6, 6-Chloro-4-methyl-3-(5-(1-methyl-1H-indol-6-yl)-1-propionyl-4,5-dihydro-1H-pyrazol-3-yl)quinolin-2(1H)-one], at least 50%.

Compound `CCC(=O)N1N=C(c2c(C)c3cc(Cl)ccc3[nH]c2=O)CC1c1ccc(OC)nc1` (stereo not drawn) [Example 7, 6-chloro-3-(5-(6-methoxypyridin-3-yl)-1-propionyl-4,5-dihydro-1H-pyrazol-3-yl)-4-methylquinolin-2(1H)-one] registered an inhibition at 10 µM of at least 50%. `CCC(=O)Nc1ccc(C2CC(c3c(C)c4cc(Cl)ccc4[nH]c3=O)=NN2C(=O)CC)cc1` (stereo not drawn) [Example 8, N-(4-(3-(6-chloro-4-methyl-2-oxo-1,2-dihydroquinolin-3-yl)-1-propionyl-4,5-dihydro-1H-pyrazol-5-yl)phenyl)propionamide]: the inhibition at 10 µM was at least 50%.

Compound `CCC(=O)N1N=C(c2c(C)c3ncccc3[nH]c2=O)CC1c1ccc(OC)cc1` (stereo not drawn) [Example 9, 3-(5-(4-Methoxyphenyl)-1-propionyl-4,5-dihydro-1H-pyrazol-3-yl)-4-methyl-1,5-naphthyridin-2(1H)-one] displayed an inhibition at 10 µM of under 50%. Same read-out and setting: as for `CCC(=O)N1N=C(c2c(C)c3ccccc3[nH]c2=O)CC1c1ccc(OC)cc1` (stereo not drawn) [Example 11, 3-(5-(4-Methoxyphenyl)-1-propionyl-4,5-dihydro-1H-pyrazol-3-yl)-4-methylquinolin-2(1H)-one], the figure is at least 50%.

The test is the same for the next values; noted with them: Homo sapiens, MDA-MB-231, 216 h, MDAMB231 cell line, 9 day treatment, separated enantiomers A/B (Table 3).
`CCC(=O)N1N=C(c2c(C)c3ccsc3[nH]c2=O)CC1c1ccc(OC)cc1` (single isomer, unassigned) [Example 20A] had an inhibition at 10 µM of at least 50%. The same measure, in the same setting: as for `CCC(=O)N1N=C(c2c(C)c3ccsc3[nH]c2=O)CC1c1ccc(Cl)cc1` (single isomer, unassigned) [Example 28B], the figure is at least 50%.

With `CCC(=O)N1N=C(c2c(C)c3ccsc3[nH]c2=O)CC1c1ccsc1` (single isomer, unassigned) [Example 33B], the inhibition at 10 µM was under 50%. Still for that read-out and setting: as for `CCC(=O)N1N=C(c2c(C)c3ccsc3[nH]c2=O)CC1c1ccc(C)cc1` (single isomer, unassigned) [Example 37B], the figure is at least 50%; as for `CCC(=O)N1N=C(c2c(C)c3ccsc3[nH]c2=O)CC1c1ccc(C)nc1` (single isomer, unassigned) [Example 45B], at least 50%. Still for that read-out and setting: in the case of `CCC(=O)N1N=C(c2c(C)c3ccccc3[nH]c2=O)CC1c1ccc(C)cc1` (single isomer, unassigned) [Example 60B] it was at least 50%; in that of `CCC(=O)N1N=C(c2c(C)c3ccsc3[nH]c2=O)CC1c1ccc(C)cc1F` (single isomer, unassigned) [Example 66A], at least 50%; in that of `CCC(=O)N1N=C(c2c(C)c3ccncc3[nH]c2=O)CC1c1ccc(C)cc1` (single isomer, unassigned) [Example 74A], at least 50%. For the compound `CCC(=O)N1N=C(c2c(C)c3ccnc(C)c3[nH]c2=O)CC1c1ccc(C)cc1` (single isomer, unassigned) [Example 78A], the inhibition at 10 µM is under 50%. Same read-out and setting: as for `CCC(=O)N1N=C(c2c(C)c3ccc(Cl)cc3[nH]c2=O)CC1c1ccc(C)cc1` (single isomer, unassigned) [Example 80A], the figure is under 50%; as for `CCC(=O)N1N=C(c2c(C)c3ccc(N4CCN(C)CC4)cc3[nH]c2=O)CC1c1ccc(C)cc1` (single isomer, unassigned) [Example 82A], at least 50%; as for `CCC(=O)N1N=C(c2c(C)c3ccccc3[nH]c2=O)C[C@@H]1c1ccc(C)cc1` (stereo in doubt) [Example 60A, rel-(R)-4-methyl-3-(1-propionyl-5-(p-tolyl)-4,5-dihydro-1H-pyrazol-3-yl)quinolin-2-(1H)-one], at least 50%.

Still in this test, the particulars now being: MDAMB231 cell line, 9 day treatment, separated enantiomers A/B (Table 3), 10 µM.
Regarding `CCC(=O)N1N=C(c2c(C)c3ccsc3[nH]c2=O)CC1c1ccc(C)nc1` (single isomer, unassigned) [Example 45A], the “% inhibition @ 10 μM” value was “++ (<50% ++)”.

As for `CCC(=O)N1N=C(c2c(C)c3ccnc(C)c3[nH]c2=O)CC1c1ccc(C)cc1` (single isomer, unassigned) [Example 78B], the “% inhibition @ 10 μM” value was “+ (≥50% +)”. The same measure, in the same setting: in the case of `CCC(=O)N1N=C(c2c(C)c3ccc(Cl)cc3[nH]c2=O)CC1c1ccc(C)cc1` (single isomer, unassigned) [Example 80B] it was “+ (≥50% +)”.
